Source: article PMC7490411 (Signal Transduction and Targeted Therapy, 2020)

How the values were obtained:
[1] = tested on: DOHH2; test: anti-proliferative CellTiter-Glo assay; assay type: cell-based; conditions: Homo sapiens, DOHH-2; DOHH2, 72 h
Procedure: (§1) Cell viability was measured using the CellTiter–Glo assay (Promega, USA) according to the manufacturer’s instructions, and […] was measured in a Bio-red Microplate reader (Bio-Red, USA).

[2] = tested on: Pfeiffer; test: anti-proliferative CellTiter-Glo assay; assay type: cell-based; conditions: Homo sapiens, 72 h
Procedure: as §1

[3] = tested on: Raji; test: anti-proliferative CellTiter-Glo assay; assay type: cell-based; conditions: Homo sapiens, 72 h
Procedure: as §1

[4] = tested on: Ramos; test: anti-proliferative CellTiter-Glo assay; assay type: cell-based; conditions: Homo sapiens, 72 h
Procedure: as §1

[5] = tested on: AAK1; test: KINOMEscan; assay type: binding; conditions: 1000 nM
[6] = tested on: ABL1(Q252H)-nonphosphorylated; test: KINOMEscan; assay type: binding; conditions: 1000 nM
[7] = tested on: ABL1(Q252H)-phosphorylated; test: KINOMEscan; assay type: binding; conditions: 1000 nM
[8] = tested on: AXL; test: KINOMEscan; assay type: binding; conditions: 1000 nM
[9] = tested on: BMPR1A; test: KINOMEscan; assay type: binding; conditions: 1000 nM
[10] = tested on: CAMK2B; test: KINOMEscan; assay type: binding; conditions: 1000 nM
[11] = tested on: CAMK2D; test: KINOMEscan; assay type: binding; conditions: 1000 nM
[12] = tested on: CASK; test: KINOMEscan; assay type: binding; conditions: 1000 nM
[13] = tested on: CDK4-cyclinD1; test: KINOMEscan; assay type: binding; conditions: 1000 nM
[14] = tested on: CIT; test: KINOMEscan; assay type: binding; conditions: 1000 nM
[15] = tested on: CSNK1E; test: KINOMEscan; assay type: binding; conditions: 1000 nM
[16] = tested on: CSNK1G3; test: KINOMEscan; assay type: binding; conditions: 1000 nM
[17] = tested on: DAPK3; test: KINOMEscan; assay type: binding; conditions: 1000 nM
[18] = tested on: DYRK1A; test: KINOMEscan; assay type: binding; conditions: 1000 nM
[19] = tested on: EGFR(L747-E749del, A750P); test: KINOMEscan; assay type: binding; conditions: 1000 nM
[20] = tested on: EPHB3; test: KINOMEscan; assay type: binding; conditions: 1000 nM
[21] = tested on: ERK3; test: KINOMEscan; assay type: binding; conditions: 1000 nM
[22] = tested on: FGFR3(G697C); test: KINOMEscan; assay type: binding; conditions: 1000 nM
[23] = tested on: FLT3; test: KINOMEscan; assay type: binding; conditions: 1000 nM
[24] = tested on: GAK; test: KINOMEscan; assay type: binding; conditions: 1000 nM
[25] = tested on: GCN2(Kin.Dom.2,S808G); test: KINOMEscan; assay type: binding; conditions: 1000 nM
[26] = tested on: GRK1; test: KINOMEscan; assay type: binding; conditions: 1000 nM
[27] = tested on: GRK4; test: KINOMEscan; assay type: binding; conditions: 1000 nM
[28] = tested on: GRK7; test: KINOMEscan; assay type: binding; conditions: 1000 nM
[29] = tested on: JAK1(JH2domain-pseudokinase); test: KINOMEscan; assay type: binding; conditions: 1000 nM
[30] = tested on: JNK1; test: KINOMEscan; assay type: binding; conditions: 1000 nM
[31] = tested on: JNK3; test: KINOMEscan; assay type: binding; conditions: 1000 nM
[32] = tested on: LRRK2; test: KINOMEscan; assay type: binding; conditions: 1000 nM
[33] = tested on: MAP3K1; test: KINOMEscan; assay type: binding; conditions: 1000 nM
[34] = tested on: MEK4; test: KINOMEscan; assay type: binding; conditions: 1000 nM
[35] = tested on: MINK; test: KINOMEscan; assay type: binding; conditions: 1000 nM
[36] = tested on: MYLK2; test: KINOMEscan; assay type: binding; conditions: 1000 nM
[37] = tested on: p38-beta; test: KINOMEscan; assay type: binding; conditions: 1000 nM
[38] = tested on: PCTK2; test: KINOMEscan; assay type: binding; conditions: 1000 nM
[39] = tested on: PFTAIRE2; test: KINOMEscan; assay type: binding; conditions: 1000 nM
[40] = tested on: PIK3CA(E545K); test: KINOMEscan; assay type: binding; conditions: 1000 nM
[41] = tested on: PIK3CA(I800L); test: KINOMEscan; assay type: binding; conditions: 1000 nM
[42] = tested on: PRKCD; test: KINOMEscan; assay type: binding; conditions: 1000 nM
[43] = tested on: PRP4; test: KINOMEscan; assay type: binding; conditions: 1000 nM
[44] = tested on: PYK2; test: KINOMEscan; assay type: binding; conditions: 1000 nM
[45] = tested on: RIOK3; test: KINOMEscan; assay type: binding; conditions: 1000 nM
[46] = tested on: RIPK5; test: KINOMEscan; assay type: binding; conditions: 1000 nM
[47] = tested on: RPS6KA4(Kin.Dom.2-C-terminal); test: KINOMEscan; assay type: binding; conditions: 1000 nM
[48] = tested on: SNRK; test: KINOMEscan; assay type: binding; conditions: 1000 nM
[49] = tested on: SRMS; test: KINOMEscan; assay type: binding; conditions: 1000 nM
[50] = tested on: STK35; test: KINOMEscan; assay type: binding; conditions: 1000 nM
[51] = tested on: TAOK2; test: KINOMEscan; assay type: binding; conditions: 1000 nM
[52] = tested on: TIE2; test: KINOMEscan; assay type: binding; conditions: 1000 nM
[53] = tested on: TNK1; test: KINOMEscan; assay type: binding; conditions: 1000 nM
[54] = tested on: TNK2; test: KINOMEscan; assay type: binding; conditions: 1000 nM
[55] = tested on: TYRO3; test: KINOMEscan; assay type: binding; conditions: 1000 nM
[56] = tested on: YANK1; test: KINOMEscan; assay type: binding; conditions: 1000 nM
[57] = tested on: ZAK; test: KINOMEscan; assay type: binding; conditions: 1000 nM

`C=CC(=O)Nc1cc(Nc2cc(-c3cccc(NC(=O)c4cc5c(s4)CCCC5)c3C)cn(C)c2=O)ccc1N1CCN(CC)CC1` [CHMFL-BTK-85] showed a GI50 [1] of 700 ± 150 nM, a GI50 [2] of 290 ± 140 nM and a GI50 [3] of 1500 ± 58 nM. For the same compound, the GI50 [4] was 1300 ± 100 nM, the “Percent Control” value [5] was 82% and the “Percent Control” value [6] was 84%. The “Percent Control” value [7] was 96%, the “Percent Control” value [8] was 100% and the “Percent Control” value [9] was 97%. The “Percent Control” value [10] was 100%, the “Percent Control” value [11] was 75% and the “Percent Control” value [12] was 100%. For the same compound, the “Percent Control” value [13] was 100%, the “Percent Control” value [14] was 95% and the “Percent Control” value [15] was 95%. For the same compound, the “Percent Control” value [16] was 100%, the “Percent Control” value [17] was 65% and the “Percent Control” value [18] was 100%. For the same compound, the “Percent Control” value [19] was 57%, the “Percent Control” value [20] was 100% and the “Percent Control” value [21] was 100%. The “Percent Control” value [22] was 87%, the “Percent Control” value [23] was 80% and the “Percent Control” value [24] was 100%. The “Percent Control” value [25] was 75%, the “Percent Control” value [26] was 84% and the “Percent Control” value [27] was 88%. The “Percent Control” value [28] was 100%, the “Percent Control” value [29] was 96% and the “Percent Control” value [30] was 100%. For the same compound, the “Percent Control” value [31] was 98%, the “Percent Control” value [32] was 100% and the “Percent Control” value [33] was 99%. For the same compound, the “Percent Control” value [34] was 100%, the “Percent Control” value [35] was 88% and the “Percent Control” value [36] was 91%. For the same compound, the “Percent Control” value [37] was 89%, the “Percent Control” value [38] was 100% and the “Percent Control” value [39] was 99%. The “Percent Control” value [40] was 98%, the “Percent Control” value [41] was 100% and the “Percent Control” value [42] was 77%. For the same compound, the “Percent Control” value [43] was 92%, the “Percent Control” value [44] was 100% and the “Percent Control” value [45] was 100%. For the same compound, the “Percent Control” value [46] was 98%, the “Percent Control” value [47] was 100% and the “Percent Control” value [48] was 86%. For the same compound, the “Percent Control” value [49] was 85%, the “Percent Control” value [50] was 100% and the “Percent Control” value [51] was 96%. For the same compound, the “Percent Control” value [52] was 84%, the “Percent Control” value [53] was 75% and the “Percent Control” value [54] was 64%. The “Percent Control” value [55] was 97%, the “Percent Control” value [56] was 100% and the “Percent Control” value [57] was 99%.
